This note sets out measurements from US20190177286A1, “CRYSTAL MODIFICATIONS OF ELOBIXIBAT” (Elobix AB, priority 2014, published 2019).

The data set is described as follows: Dynamic Vapor Sorption (DVS), two sorption-desorption cycles 0-95-0% RH. It counts as physicochemical. Particulars: for phase change from anhydrate to dihydrate, significant change in moisture (sorption curves): DVS sorption cycles. The procedure:
Approximately 2-16 mg of the sample was weighed into a metal receptacle, which was then released of static electricity. The metal receptacle was positioned in a Surface Measurements System Ltd DVS Advantage instrument. The sample was subjected to two consecutive sorption-desorption cycles, each running from 0-95-0% relative humidity (% RH). One cycle consisted of 21 steps, those between 0-90% RH were taken in 10% RH each. At each stage the following equilibrium criteria was used: dm/dt over 5 minutes <0,002% and the minimum and maximum time at each stage were 10 and 360 min respectively.

Turning to `CCCCC1(CCCC)CN(c2ccccc2)c2cc(SC)c(OCC(=O)N[C@@H](C(=O)NCC(=O)O)c3ccccc3)cc2S(=O)(=O)C1` [crystal modification N, N-{(2R)-2-[({[3,3-dibutyl-7-(methylthio)-1,1-dioxido-5-phenyl-2,3,4,5-tetrahydro-1,5-benzothiazepin-8-yl]oxy}acetyl)amino]-2-phenylethanolyl}-glycine], the “moisture amount where the four DVS curves coincide (dihydrate)” value (DVS, sorption and desorption curves of two cycles) is “around 5 % w/w”. On to `CCCCC1(CCCC)CN(c2ccccc2)c2cc(SC)c(OCC(=O)N[C@@H](C(=O)NCC(=O)O)c3ccccc3)cc2S(=O)(=O)C1` [crystal modification L, N-{(2R)-2-[({[3,3-dibutyl-7-(methylthio)-1,1-dioxido-5-phenyl-2,3,4,5-tetrahydro-1,5-benzothiazepin-8-yl]oxy}acetyl)amino]-2-phenylethanolyl}-glycine], for which the “phase change from anhydrate to dihydrate, significant change in moisture (sorption curves)” value (listed as L) was 40-50 % RH. For the molecule `CCCCC1(CCCC)CN(c2ccccc2)c2cc(SC)c(OCC(=O)N[C@@H](C(=O)NCC(=O)O)c3ccccc3)cc2S(=O)(=O)C1` [crystal modification C, N-{(2R)-2-[({[3,3-dibutyl-7-(methylthio)-1,1-dioxido-5-phenyl-2,3,4,5-tetrahydro-1,5-benzothiazepin-8-yl]oxy}acetyl)amino]-2-phenylethanolyl}-glycine], under “listed as C”, the “phase change from anhydrate to dihydrate, significant change in moisture (sorption curves)” value was 60-70 % RH. For `CCCCC1(CCCC)CN(c2ccccc2)c2cc(SC)c(OCC(=O)N[C@@H](C(=O)NCC(=O)O)c3ccccc3)cc2S(=O)(=O)C1` [crystal modification F, N-{(2R)-2-[({[3,3-dibutyl-7-(methylthio)-1,1-dioxido-5-phenyl-2,3,4,5-tetrahydro-1,5-benzothiazepin-8-yl]oxy}acetyl)amino]-2-phenylethanolyl}-glycine], under “weight % water versus % RH, two consecutive DVS cycles, FIG. 10”, the “moisture uptake (DVS isotherm)” value is on record as “linear function of % RH”.
